Data published in patent US20240254174A1 (priority 2023, published 2024).
Where “and” joins values, the source holds several entries; their conditions need not be identical. Identical values can stand only once. Entries after “also recorded” stand apart in the source; their conditions may differ.

Experiments:
α7 nAChR [1] = biological target: T1, α7 nAChR (Homo sapiens, UniProt P36544); experiment: cell-based; type: cell-based
α9α10 nAChR = α9α10 nAChR (Homo sapiens, UniProt Q9GZZ6+Q9UGM1); experiment: cell-based
α9α10 nAChR, sequence (Q9UGM1 26-479 limits assumed): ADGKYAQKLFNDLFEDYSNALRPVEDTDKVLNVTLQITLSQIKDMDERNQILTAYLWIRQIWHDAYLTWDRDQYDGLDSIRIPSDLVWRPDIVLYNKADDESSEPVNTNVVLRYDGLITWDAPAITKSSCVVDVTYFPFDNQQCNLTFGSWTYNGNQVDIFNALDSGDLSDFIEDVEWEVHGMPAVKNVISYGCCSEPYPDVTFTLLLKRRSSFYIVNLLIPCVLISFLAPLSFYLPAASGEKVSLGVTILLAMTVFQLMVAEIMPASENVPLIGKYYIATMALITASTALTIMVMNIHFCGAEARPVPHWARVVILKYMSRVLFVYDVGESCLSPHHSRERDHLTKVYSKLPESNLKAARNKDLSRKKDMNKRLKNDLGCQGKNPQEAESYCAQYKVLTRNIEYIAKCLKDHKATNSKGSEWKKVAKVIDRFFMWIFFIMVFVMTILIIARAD
α9α10 nAChR, sequence (Q9GZZ6 25-450 limits assumed): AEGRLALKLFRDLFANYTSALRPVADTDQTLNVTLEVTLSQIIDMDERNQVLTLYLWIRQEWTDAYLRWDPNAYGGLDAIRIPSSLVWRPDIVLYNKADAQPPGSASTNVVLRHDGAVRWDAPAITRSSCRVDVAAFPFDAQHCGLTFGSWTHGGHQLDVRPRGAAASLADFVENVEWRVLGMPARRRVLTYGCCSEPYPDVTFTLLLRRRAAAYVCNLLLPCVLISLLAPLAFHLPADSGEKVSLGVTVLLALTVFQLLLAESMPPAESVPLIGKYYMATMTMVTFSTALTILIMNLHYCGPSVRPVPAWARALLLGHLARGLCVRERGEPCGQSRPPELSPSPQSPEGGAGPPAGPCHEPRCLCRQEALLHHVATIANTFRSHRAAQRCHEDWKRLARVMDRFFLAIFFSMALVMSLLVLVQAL

α7 nAChR [2] = biological target: T1, α7 nAChR; experiment: cell-based; conditions: read-out: inhibition of ACh-mediated currents on α7 nAChR
nAChR subtypes = type: cell-based, Human
[3] = test system: non-transfected N2a cells
[4] = test system: α7-nAChR transfected cells; type: cell-based
[5] = test system: non-transfected HEK cells; type: cell-based, human
[6] = in vivo
[7] = test system: α7-nAChR transfected N2a cells; type: cell-based
Pdcd4 protein = type: cell-based
BDNF [8] = type: cell-based
Pdcd4 = conditions: mouse, in vivo
Pdcd4, sequence (Q61823 whole entry): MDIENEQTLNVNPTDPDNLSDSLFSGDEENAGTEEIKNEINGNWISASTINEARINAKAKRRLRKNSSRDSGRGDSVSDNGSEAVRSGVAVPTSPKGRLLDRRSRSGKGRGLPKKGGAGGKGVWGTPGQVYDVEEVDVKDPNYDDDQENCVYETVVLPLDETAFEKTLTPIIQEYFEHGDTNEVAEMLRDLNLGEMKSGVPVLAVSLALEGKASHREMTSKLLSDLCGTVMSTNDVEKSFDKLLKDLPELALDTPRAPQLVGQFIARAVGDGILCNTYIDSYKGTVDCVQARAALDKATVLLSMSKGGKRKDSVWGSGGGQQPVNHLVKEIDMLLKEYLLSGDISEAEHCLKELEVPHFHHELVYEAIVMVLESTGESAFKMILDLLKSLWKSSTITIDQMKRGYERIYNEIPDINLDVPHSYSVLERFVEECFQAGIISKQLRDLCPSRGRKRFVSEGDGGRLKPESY

BDNF [9] = conditions: mouse, in vivo
Target sequence in this assay (P21237 131-249): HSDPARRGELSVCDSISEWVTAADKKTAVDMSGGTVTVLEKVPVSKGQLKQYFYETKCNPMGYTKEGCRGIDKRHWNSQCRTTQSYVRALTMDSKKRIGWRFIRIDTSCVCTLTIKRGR

[10] = biological target: α7 nAChR (nicotinic acetylcholine receptor), expressed in Xenopus laevis oocytes (Human) (UniProt P36544); experiment: cell-based or functional assay
α7 nAChR (nicotinic acetylcholine receptor), expressed in Xenopus laevis oocytes (Human), sequence (P36544 23-502): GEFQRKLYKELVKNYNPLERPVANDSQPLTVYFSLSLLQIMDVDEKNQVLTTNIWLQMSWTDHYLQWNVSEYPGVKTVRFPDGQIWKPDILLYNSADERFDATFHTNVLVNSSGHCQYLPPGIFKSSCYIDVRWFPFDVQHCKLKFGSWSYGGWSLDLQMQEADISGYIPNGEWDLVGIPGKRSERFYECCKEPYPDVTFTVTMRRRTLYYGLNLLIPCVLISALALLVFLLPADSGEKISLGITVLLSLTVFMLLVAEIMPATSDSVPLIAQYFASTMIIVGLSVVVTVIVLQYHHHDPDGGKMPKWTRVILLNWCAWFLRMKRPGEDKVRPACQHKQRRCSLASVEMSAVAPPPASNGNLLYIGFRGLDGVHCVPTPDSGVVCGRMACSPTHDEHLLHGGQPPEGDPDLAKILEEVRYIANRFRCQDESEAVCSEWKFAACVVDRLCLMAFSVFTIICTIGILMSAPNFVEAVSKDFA

[11] = biological target: α9α10 nAChR, expressed in Xenopus laevis oocytes (Human) (UniProt Q9UGM1); experiment: cell-based or functional assay
α9α10 nAChR, expressed in Xenopus laevis oocytes (Human), sequence (Q9UGM1 23-479, chain 1 of 2): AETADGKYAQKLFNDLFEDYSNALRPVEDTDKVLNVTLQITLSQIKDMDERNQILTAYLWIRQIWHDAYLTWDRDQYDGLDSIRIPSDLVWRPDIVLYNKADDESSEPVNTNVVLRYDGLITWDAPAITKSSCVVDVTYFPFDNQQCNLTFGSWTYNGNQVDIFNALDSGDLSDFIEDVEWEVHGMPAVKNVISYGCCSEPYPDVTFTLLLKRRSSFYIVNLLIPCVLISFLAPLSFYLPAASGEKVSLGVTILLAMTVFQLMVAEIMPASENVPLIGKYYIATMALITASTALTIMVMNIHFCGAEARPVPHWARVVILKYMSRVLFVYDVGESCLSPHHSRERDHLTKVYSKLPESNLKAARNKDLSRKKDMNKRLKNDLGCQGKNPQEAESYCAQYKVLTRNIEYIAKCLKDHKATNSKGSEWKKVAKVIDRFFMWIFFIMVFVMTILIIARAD
α9α10 nAChR, expressed in Xenopus laevis oocytes (Human), sequence (Q9GZZ6 25-450, chain 2 of 2, further chain): as the sequence (Q9GZZ6 25-450 limits assumed) above

T1 sequence (P36544 23-502 limits assumed): as the sequence (P36544 23-502) above

Which IC50 (α7 nAChR [1]; α7 nAChR potency (IC50, concentration response profile)) does the source give for `CC[C@H](C)[C@H](NC(=O)[C@H](CC(=O)O)NC(=O)[C@H](CS)NC(=O)[C@H](CO)NC(=O)[C@@H](NC(=O)CNC(=O)[C@H](CC(C)C)NC(=O)[C@H](CCCNC(=N)N)NC(=O)[C@@H]1CCCN1C(=O)[C@H](CC(N)=O)NC(=O)[C@H](CCC(=O)O)NC(=O)[C@@H]1CCCN1C(=O)[C@H](CCSC)NC(=O)[C@H](Cc1c[nH]c2ccccc12)NC(=O)[C@@H](NC(=O)[C@@H](NC(=O)[C@@H](N)Cc1ccc(O)cc1)[C@@H](C)O)[C@@H](C)CC)[C@@H](C)O)C(=O)N[C@@H](Cc1ccccc1)C(=O)N[C@H](C(=O)N[C@@H](CC(N)=O)C(=O)N[C@@H](CO)C(=O)N[C@@H](CCCNC(=N)N)C(=O)NCC(=O)N[C@@H](CCCCN)C(=O)N[C@@H](CCCNC(=N)N)C(=O)N[C@@H](C)C(=O)N[C@@H](CO)C(=O)N[C@@H](CCCCN)C(=O)NCC(=O)O)[C@@H](C)O` [RVG peptide, reference compound] here?
Its IC50 is 32 µM and 31 µM.

What about the IC50 (α9α10 nAChR) of the same compound?
Its IC50 is 153 ± 14 µM.

What about the inhibition at 100 µM (α7 nAChR [2]) of the same compound?
The inhibition at 100 µM was greater than 80%.

And the “inhibition of ACh-mediated currents on several other nAChR subtypes” value (nAChR subtypes)?
Its value is greater than 25%.

And the “nAChR subtype selectivity (in words)” value (nAChR subtypes)?
Its value is “not target specific; also recorded: slight preference for the α7-nAChR; also recorded: not very selective”.

What about the neuro-/cytotoxicity (HEK cell lines) of the same compound?
Its neuro-/cytotoxicity is “not neuro- or cyto-toxic”.

With YRKMW [α-btx Region 1] as the compound, how does the “effect of peptide regions on α7 nAChR mediated currents (in words)” value (shortened to “effect of peptide regions”) (α7 nAChR [1]) read?
The value was “inhibit”.

For DMSO, which “cell viability, positive control” value [3] is on record?
Its value is “kills cells”.

With “YRKMWMPENPRLGTSCDAFCSSRGKVVELGRRRRRRRRR [lead CPP-9dR]” as the compound, how does the “delivery of siPdcd4-FL into α7-nAChR transfected cells” value [4] read?
The value was “can facilitate delivery”.

And the “delivery of siPdcd4-FL into non-transfected HEK cells” value [5]?
The value was “not into non-transfected HEK cells”.

What about the “siPdcd4-FL delivery into mouse CNS” value [6] of the same compound?
The value was “can facilitate siPdcd4-FL delivery into mouse CNS”.

And the brain regional distribution ([6]; mouse)?
The brain regional distribution was “accumulate in the hippocampus and prefrontal cortex”.

What does the source list for `CSCC[C@H](NC(=O)[C@H](CCCCN)NC(=O)[C@H](CCCNC(=N)N)NC(=O)[C@@H](N)Cc1ccc(O)cc1)C(=O)N[C@@H](Cc1c[nH]c2ccccc12)C(=O)N[C@@H](CCSC)C(=O)N1CCC[C@H]1C(=O)N[C@@H](CCC(=O)O)C(=O)N[C@@H](CC(N)=O)C(=O)N1CCC[C@H]1C(=O)N[C@@H](CCCNC(=N)N)C(=O)N[C@@H](CC(C)C)C(=O)NCC(=O)N[C@H](C(=O)N[C@@H](CO)C(=O)N[C@@H](CS)C(=O)N[C@@H](CC(=O)O)C(=O)N[C@@H](C)C(=O)N[C@@H](Cc1ccccc1)C(=O)N[C@@H](CS)C(=O)N[C@@H](CO)C(=O)N[C@@H](CO)C(=O)N[C@@H](CCCNC(=N)N)C(=O)NCC(=O)N[C@@H](CCCCN)C(=O)N[C@H](C(=O)N[C@H](C(=O)N[C@@H](CCC(=O)O)C(=O)N[C@@H](CC(C)C)C(=O)NCC(=O)O)C(C)C)C(C)C)[C@@H](C)O` [lead peptide]?
α7 nAChR potency (IC50, concentration response profile) (α7 nAChR [1]): low μM; inhibition of ACh-mediated currents on no more than two subtypes (positive hit criterion) (nAChR subtypes): > 80%; inhibition of ACh-mediated currents on the other tested nAChR subtypes (nAChR subtypes): < 25%; nAChR subtype selectivity (in words) (nAChR subtypes): minimally targeting nine other nAChR subtypes; also recorded: high selectivity; time to entry into neuronal-like cells post-exposure [7]: ≤ 3 h; time visually present in neuronal-like cells [7]: up to 72 hrs; neuro-/cytotoxicity (HEK cell lines): not neuro- or cyto-toxic

Which results are given for “5′-GAGGCUAUGAGAGAAUUUATT-FL-3′ [siPdcd4]”?
expression of Pdcd4 protein (Pdcd4 protein): knock down; BDNF production (BDNF [8]): enhance; Pdcd4 expression in tissue (Pdcd4): decreases; BDNF production in tissue (BDNF [9]): enhance

For YTIW [RVG Region 1], which “effect of peptide regions” value (α7 nAChR [1]) is on record?
The value was “minimal effects”.

Which “effect of peptide regions” value (α7 nAChR [1]) does the source give for MPENPRLGTS [RVG Region 2] here?
The value was “minimal effects”.

For α-bungarotoxin [reference compound], which “cell entry / labeling (in words)” value [7] is on record?
Its value is “unable to enter”.

For “RVG peptide (rabies viral glycoprotein peptide)”, which potency (concentration response profile, inhibition of ACh-mediated currents) [10] is on record?
Its potency (concentration response profile, inhibition of ACh-mediated currents) is 31 µM.

And the potency (concentration response, inhibition of ACh-mediated currents) [10]?
Its potency (concentration response, inhibition of ACh-mediated currents) is 32 µM.

And the potency (concentration response profile, inhibition of ACh-mediated currents) [11]?
The potency (concentration response profile, inhibition of ACh-mediated currents) was 153 µM.

For CDIFTNSRGKRASKG [RVG Region 3], which “effect of peptide regions” value (α7 nAChR [1]) is on record?
The value was “slightly antagonizes”.

For CDAFCSSRGKVVELG [α-btx Region 3], which “effect of peptide regions” value (α7 nAChR [1]) is on record?
The value was “inhibit”.
